Laboratory results from patent EP0055702B1, “Antithrombotic treatment” (priority 1980, dated 1982).
Where two headings read alike, the source gives them in different places.

Assays:
[1] = tested on: human, rabbit and rat plasma; assay: PTT (partial thromboplastin time) in plasma in vitro, Example 3; type: biochemical; conditions: for PTT (seconds) Exp. 1 A / PTT (seconds) Exp. 2 A: active agent 0.5/ml, control; for prolongation of PTT: 0.5 mg/ml, human, rabbit and rat plasma in vitro, dose-related
From the text: (§1) Sodium, potassium and ammonium bisulphites are found to prolong PT and PTT in a dose-related fashion.
(§2) The evaluation procedure used is that described in "Human Blood Coagulation, Haemostasis and Thrombosis", edited by Rosemary Biggs, published by Blackwell Scientific Publications, Oxford, England (2nd Edition), pages 670-705, 1976.

[2] = PT of coded and various agents, Example 6; type: biochemical
From the text: (§3) A variety of agents were coded and evaluated under a code designation. Among these compounds, thiouracil, mercaptosuccinic acid, thiosemicarbazide, phenothiazine and sodium thiosulphate were included, so as to compare sodium bisulphite with certain compounds mentioned in USP 4,148,855.
(§4) After determination of PT and PTT values, the coded compounds were decoded.
(§5) The results are shown in Table V, where mean values of 5 replications in each case are reported. […] This procedure was repeated with some additional compounds on two different days using a different control on each day.

[3] = PTT of coded and various agents, Example 6; type: biochemical; conditions: for PTT: Table V, coded agents 0.5 mg/ml, Control 43.38
From the text: as §3, §4, §5

thrombin = conditions: Elias; cited from earlier work
[4] = tested on: platelet-fibrinogen preparations; conditions: 10 to 50 mM; Chao; cited from earlier work
[5] = tested on: celite-fibrinogen suspension; conditions: Chao, cited from earlier work
dog plasma = conditions: 10 mM, Elias; cited from earlier work
[6] = tested on: human, rabbit and rat plasma; assay: PT (prothrombin time) in plasma in vitro, Example 3; type: biochemical; conditions: for PT (seconds) Exp. 1 A / PT (seconds) Exp.2 A: active agent 0.5/ml, control; for prolongation of PT: 0.5 mg/ml, human, rabbit and rat plasma in vitro, dose-related
From the text: as §1, §2

blood coagulation time = conditions: 10 mM; Kikugawa; cited from earlier work
[7] = rabbits; cited from earlier work
[8] = Table V, coded agents 0.5 mg/ml, Control 12.92
[9] = coded compounds after decoding, in vitro

Sodium sulphite
PTT (seconds) Exp. 1 A ([1]; Test sequence A): 66.1 s | PTT (seconds) Exp. 2 A ([1]; Test sequence A): 80.7 s | PTT (seconds) Exp. 1 A ([1]; Test sequence B): 74.8 s | PTT (seconds) Exp. 2 A ([1]; Test sequence B): 82.1 s | PT [2]: 16.38 s | PT [2, 8]: 16.14 s | PTT [3]: 64.62 s | inhibitory effect on TAME esterolytic activity of thrombin (thrombin): No inhibitory effect | effect on the first wave of platelet-fibrinogen preparations [4]: no effect | inhibition of thrombin-induced light transmission increase (LTI) ([5]; 10 mM): partial inhibition | inhibition of thrombin-induced light transmission increase (LTI) ([5]; 50 mM): complete inhibition | increase of thrombin time (dog plasma): about 38% | PT (seconds) Exp. 1 A ([6]; Test sequence A): 16.2 s | PT (seconds) Exp.2 A ([6]; Test sequence A): 17.7 s | PT (seconds) Exp. 1 A ([6]; Test sequence B): 16.8 s | PT (seconds) Exp.2 A ([6]; Test sequence B): 17.7 s

Sodium thiosulphate [SI6, reference compound]
PT [2]: 13.5 s

O=S([O-])S(=O)(=O)[O-].[K+].[K+] [Potassium metabisulphite]
PT (seconds) Exp.2 A ([6]; Test sequence A): 22.0 s

ammonium bisulphite
prolongation of PTT [1]: significantly prolong | prolongation of PT [6]: significantly prolong

Dihydroxymalcic acid 2 H2O [Solution A3, reference compound]
PT [2, 8]: 14.95 s | PTT [3]: 53.00 s

potassium bisulphite
prolongation of PTT [1]: significantly prolong | prolongation of PT [6]: significantly prolong

O=S(=O)(O)CO [SO3, Sodium formaldehyde bisulphite, reference compound]
effect on PT values [2, 9]: effected in increasing PT and PTT values | effect on PTT values [3, 9]: effected in increasing PT and PTT values

sodium bisulphite/sulphite
effect on blood coagulation time (blood coagulation time): no effect | LD50 [7]: 65 mg/kg

Ammonium sulphite
PTT (seconds) Exp. 1 A ([1]; Test sequence A): 56.5 s | PTT (seconds) Exp. 2 A ([1]; Test sequence A): 65.2 s | PT [2]: 16.08 s | PT (seconds) Exp. 1 A ([6]; Test sequence A): 14.7 s | PT (seconds) Exp.2 A ([6]; Test sequence A): 16.9 s

O=S([O-])S(=O)(=O)[O-].[Na+].[Na+] [Sodium metabisulphite]
PTT (seconds) Exp. 2 A ([1]; Test sequence A): 80.3 s
